{"source": "patent US20240174727A1", "about": "“LONG-ACTING NATRIURETIC PEPTIDES AND USES THEREOF” (Eli Lilly and Company, priority 2022, published 2024)", "target": "T1, human NPRA (Homo sapiens, UniProt P16066)", "T1 construct": "Full-Length cDNA Cloning and Generation of Cell Lines Overexpressing Natriuretic Peptide Receptors (NPRs); expressed in transfected cells; host or cells: Jump-in T-Rex HEK293 cells, pJTI R4 CMV-TO MCS pA vector, tetracycline induction", "T1 sequence (P16066 33-1061)": "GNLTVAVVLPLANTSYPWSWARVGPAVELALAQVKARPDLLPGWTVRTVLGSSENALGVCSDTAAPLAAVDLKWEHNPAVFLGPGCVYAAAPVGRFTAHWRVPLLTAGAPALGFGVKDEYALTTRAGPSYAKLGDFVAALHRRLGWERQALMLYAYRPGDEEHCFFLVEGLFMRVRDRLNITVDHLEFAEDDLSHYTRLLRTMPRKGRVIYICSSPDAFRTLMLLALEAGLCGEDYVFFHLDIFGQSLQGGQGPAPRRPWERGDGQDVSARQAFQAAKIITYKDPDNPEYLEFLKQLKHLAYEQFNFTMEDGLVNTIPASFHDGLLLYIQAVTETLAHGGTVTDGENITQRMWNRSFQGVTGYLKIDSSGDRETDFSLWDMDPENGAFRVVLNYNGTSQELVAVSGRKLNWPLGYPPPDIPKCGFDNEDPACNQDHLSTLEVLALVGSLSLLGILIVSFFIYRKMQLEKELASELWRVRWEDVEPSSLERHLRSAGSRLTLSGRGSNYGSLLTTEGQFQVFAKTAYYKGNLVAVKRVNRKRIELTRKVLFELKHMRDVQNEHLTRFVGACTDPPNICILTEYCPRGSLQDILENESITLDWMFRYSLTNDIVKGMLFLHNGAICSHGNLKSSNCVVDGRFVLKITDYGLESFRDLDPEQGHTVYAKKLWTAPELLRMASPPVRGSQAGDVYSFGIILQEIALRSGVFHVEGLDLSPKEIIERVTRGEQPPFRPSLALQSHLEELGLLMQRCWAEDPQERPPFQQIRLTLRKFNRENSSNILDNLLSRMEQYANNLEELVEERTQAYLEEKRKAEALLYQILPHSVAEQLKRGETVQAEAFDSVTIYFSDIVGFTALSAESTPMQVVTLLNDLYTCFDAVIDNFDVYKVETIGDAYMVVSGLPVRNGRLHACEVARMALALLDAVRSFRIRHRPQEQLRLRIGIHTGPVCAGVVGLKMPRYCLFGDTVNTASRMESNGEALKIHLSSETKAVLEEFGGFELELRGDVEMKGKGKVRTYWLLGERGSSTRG", "test": "Human NPRA cGMP activity assay (HTRF) in HEK293 cells overexpressing NPRA", "type": "cell-based", "outline": "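Tetracycline-induced (300 ng/mL, 48 h) T-Rex HEK293 cells expressing NPRA, 4000 cells/well, treated 40 min at room temperature with polypeptide (8 points, 10 μM to 1 pM) in HBSS/HEPES buffer with 0.5 mM IBMX, pH 7.4. cGMP by HTRF, normalised to 100 nM amidated rat ANP and buffer.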", "key": {"[1]": {"conditions": "assay buffer with 0.1% BSA, read-out: cGMP Assay (EC50, pM) w/BSA hNPRA"}, "[2]": {"conditions": "assay buffer with 0.1% casein, read-out: cGMP Assay (EC50, pM) w/Casein hNPRA"}, "[3]": {"conditions": "cGMP Assay (EC50, pM) w/BSA hNPRA, assay buffer with 0.1% BSA"}, "[4]": {"conditions": "cGMP Assay (EC50, pM) w/Casein hNPRA, assay buffer with 0.1% casein"}}, "note": "Read-outs that look alike come from different tables or passages of the source. Numbered stars: 1 amine (or outer) side, 2 acyl side, 3 side chain; on linkers, the order of the positions; unused ones are H or OH. Bridge positions count the residues as written; N and C are the ends. Square brackets hold non-standard residues; d marks the D form. Peptide text beside a SMILES is read from it. * marks the point of attachment. PEG24 = NCCOCCOCCOCCOCCOCCOCCOCCOCCOCCOCCOCCOCCOCCOCCOCCOCCOCCOCCOCCOCCOCCOCCOCCOCCC(=O)O; C20 diacid = O=C(O)CCCCCCCCCCCCCCCCCCC(=O)*; γGlu = O=C(O)[C@H](CCC(=O)[*:2])N[*:1]; 4Pal = N[C@@H](Cc1ccncc1)C(=O)O; Dap = NC[C@H](N)C(=O)O; CH2 = C([*:1])[*:2]; βAla = NCCC(=O)O"}
{"compound": "{C20 diacid-γGlu}-EKEKEKGEKPRSSCFG[Dap]RIDRIGHQSGLGCPSFRHGSPSSGAPPPS-NH2 (linker 14-30 via CH2) [Example 137]", "values": [{"measurement": "EC50", "setting": "[1]", "result": 155000, "unit": "pM"}, {"measurement": "EC50", "setting": "[2]", "result": 769, "unit": "pM"}]}
{"compound": "CC[C@H](C)[C@@H]1NC(=O)[C@H](CCCNC(=N)N)NC(=O)[C@H](CC(=O)O)NC(=O)[C@H]([C@@H](C)CC)NC(=O)[C@H](CCCNC(=N)N)NC(=O)CNC(=O)CNC(=O)[C@H](Cc2ccccc2)NC(=O)[C@@H](NC(=O)[C@H](CO)NC(=O)[C@H](CO)NC(=O)[C@H](CCCNC(=N)N)NC(=O)CCNC(=O)[C@H](CCC(=O)O)NC(=O)[C@H](CCCCN)NC(=O)CNC(=O)[C@H](CCCCN)NC(=O)[C@H](CCC(=O)O)NC(=O)[C@H](CCCCN)NC(=O)[C@H](CCC(=O)O)NC(=O)[C@H](CCCCN)NC(=O)[C@H](CCC(=O)O)NC(=O)CC[C@H](NC(=O)CCCCCCCCCCCCCCCCCCC(=O)O)C(=O)O)CSCSC[C@@H](C(=O)N2CCC[C@H]2C(=O)N[C@@H](CO)C(=O)N[C@@H](Cc2ccccc2)C(=O)N[C@@H](CCCNC(=N)N)C(=O)N[C@@H](Cc2c[nH]cn2)C(=O)NCC(=O)NCC(=O)N2CCC[C@H]2C(=O)N[C@@H](CO)C(=O)N[C@@H](CO)C(=O)NCC(=O)N[C@@H](C)C(=O)N2CCC[C@H]2C(=O)N2CCC[C@H]2C(=O)N2CCC[C@H]2C(=O)N[C@@H](CO)C(N)=O)NC(=O)CNC(=O)[C@H](CC(C)C)NC(=O)CNC(=O)[C@H](CO)NC(=O)[C@H](Cc2ccc(O)cc2)NC(=O)[C@H](Cc2c[nH]cn2)NC(=O)CNC1=O", "note": "[Example 58]", "values": [{"measurement": "EC50", "setting": "[3]", "result": 104000, "unit": "pM"}, {"measurement": "EC50", "setting": "[4]", "result": 1220, "unit": "pM"}]}
{"compound": "CC[C@H](C)[C@@H]1NC(=O)[C@H](CCCNC(=N)N)NC(=O)[C@H](CC(=O)O)NC(=O)[C@H]([C@@H](C)CC)NC(=O)[C@H](CCCNC(=N)N)NC(=O)CNC(=O)CNC(=O)[C@H](Cc2ccccc2)NC(=O)[C@@H](NC(=O)[C@H](CO)NC(=O)[C@H](CO)NC(=O)[C@H](CCCNC(=N)N)NC(=O)[C@H](CCCNC(=N)N)NC(=O)[C@H](Cc2ccncc2)NC(=O)[C@H](CO)NC(=O)COCCOCCNC(=O)COCCOCCNC(=O)COCCOCCNC(=O)COCCOCCNC(=O)COCCOCCNC(=O)COCCOCCNC(=O)CNC(=O)[C@H](CCCCN)NC(=O)[C@H](CCC(=O)O)NC(=O)[C@H](CCCCN)NC(=O)[C@H](CCC(=O)O)NC(=O)[C@H](CCCCN)NC(=O)[C@H](CCC(=O)O)NC(=O)CC[C@H](NC(=O)CCCCCCCCCCCCCCCCCCC(=O)O)C(=O)O)CSCSC[C@@H](C(=O)N2CCC[C@H]2C(=O)N[C@@H](CO)C(=O)N[C@@H](Cc2ccccc2)C(=O)N[C@@H](CCCNC(=N)N)C(=O)N[C@@H](Cc2c[nH]cn2)C(=O)NCC(=O)NCC(=O)N[C@@H](CCCCN)C(=O)N[C@@H](CO)C(=O)N[C@@H](CO)C(=O)NCC(=O)N[C@@H](C)C(=O)N2CCC[C@H]2C(=O)N2CCC[C@H]2C(=O)N2CCC[C@H]2C(=O)N[C@@H](CO)C(N)=O)NC(=O)CNC(=O)[C@H](CC(C)C)NC(=O)CNC(=O)[C@H](CO)NC(=O)[C@H](CCC(N)=O)NC(=O)[C@H](Cc2c[nH]cn2)NC(=O)CNC1=O", "note": "[Example 86]", "values": [{"measurement": "EC50", "setting": "[1]", "result": 25200, "unit": "pM"}, {"measurement": "EC50", "setting": "[2]", "result": 1020, "unit": "pM"}]}
{"compound": "{C20 diacid-γGlu}-EKEKEKG[PEG24]S[4Pal]RRSSCFGGRIDRIGHQSGLGCPSFRHGGPSSGAPPPS-NH2 (linker 15-31 via CH2) [Example 61]", "values": [{"measurement": "EC50", "setting": "[4]", "result": 912, "unit": "pM"}]}
{"compound": "CC[C@H](C)[C@@H]1NC(=O)[C@H](CCCNC(=N)N)NC(=O)[C@H](CC(=O)O)NC(=O)[C@H]([C@@H](C)CC)NC(=O)[C@H](CCCNC(=N)N)NC(=O)[C@H](CCCCN)NC(=O)CNC(=O)[C@H](Cc2ccccc2)NC(=O)[C@@H](NC(=O)[C@H](CO)NC(=O)[C@H](CO)NC(=O)[C@H](CCCNC(=N)N)NC(=O)CCNC(=O)[C@H](CCCCN)NC(=O)[C@H](CCC(=O)O)NC(=O)CCOCCOCCOCCOCCOCCOCCOCCOCCOCCOCCOCCOCCOCCOCCOCCOCCOCCOCCOCCOCCOCCOCCOCCOCCNC(=O)CNC(=O)[C@H](CCCCN)NC(=O)[C@H](CCC(=O)O)NC(=O)[C@H](CCCCN)NC(=O)[C@H](CCC(=O)O)NC(=O)[C@H](CCCCN)NC(=O)[C@H](CCC(=O)O)NC(=O)CC[C@H](NC(=O)CCCCCCCCCCCCCCCCCCC(=O)O)C(=O)O)CSCSC[C@@H](C(=O)N2CCC[C@H]2C(=O)N[C@@H](CO)C(=O)N[C@@H](Cc2ccccc2)C(=O)N[C@@H](CCCNC(=N)N)C(=O)N[C@@H](Cc2c[nH]cn2)C(=O)NCC(=O)NCC(=O)N2CCC[C@H]2C(N)=O)NC(=O)CNC(=O)[C@H](CC(C)C)NC(=O)CNC(=O)[C@H](CO)NC(=O)[C@H](CCC(N)=O)NC(=O)[C@H](Cc2c[nH]cn2)NC(=O)CNC1=O", "note": "[Example 130] ({C20 diacid-γGlu}-EKEKEKG[PEG24]EK[βAla]RSSCFGKRIDRIGHQSGLGCPSFRHGGP-NH2; linker 15-31 via CH2)", "values": [{"measurement": "EC50", "setting": "[1]", "result": 1270, "unit": "pM"}, {"measurement": "EC50", "setting": "[2]", "result": 669, "unit": "pM"}]}
{"compound": "{C20 diacid-γGlu}-EKEKEKGEKPRSSCFG[Dap]RIDRIGHYSGLGCPSFRHGSPSSGAPPPS-NH2 (linker 14-30 via CH2) [Example 136]", "values": [{"measurement": "EC50", "setting": "[1]", "result": 100000, "unit": "pM"}, {"measurement": "EC50", "setting": "[2]", "result": 1380, "unit": "pM"}]}
{"compound": "CC[C@H](C)[C@@H]1NC(=O)[C@H](CCCNC(=N)N)NC(=O)[C@H](CC(=O)O)NC(=O)[C@H]([C@@H](C)CC)NC(=O)[C@H](CCCNC(=N)N)NC(=O)CNC(=O)CNC(=O)[C@H](Cc2ccccc2)NC(=O)[C@@H](NC(=O)[C@H](CO)NC(=O)[C@H](CO)NC(=O)[C@H](CCCNC(=N)N)NC(=O)CCNC(=O)[C@H](CCCCN)NC(=O)[C@H](CCC(=O)O)NC(=O)CNC(=O)[C@H](CCCCN)NC(=O)[C@H](CCC(=O)O)NC(=O)[C@H](CCCCN)NC(=O)[C@H](CCC(=O)O)NC(=O)[C@H](CCCCN)NC(=O)[C@H](CCC(=O)O)NC(=O)CC[C@H](NC(=O)CCCCCCCCCCCCCCCCCCC(=O)O)C(=O)O)CSCSC[C@@H](C(=O)N2CCC[C@H]2C(=O)N[C@@H](CO)C(=O)N[C@@H](Cc2ccccc2)C(=O)N[C@@H](CCCNC(=N)N)C(=O)N[C@@H](Cc2c[nH]cn2)C(=O)NCC(=O)NCC(=O)N2CCC[C@H]2C(=O)N[C@@H](CO)C(=O)N[C@@H](CO)C(=O)NCC(=O)N[C@@H](C)C(=O)N2CCC[C@H]2C(=O)N2CCC[C@H]2C(=O)N2CCC[C@H]2C(=O)N[C@@H](CO)C(N)=O)NC(=O)CNC(=O)[C@H](CC(C)C)NC(=O)CNC(=O)[C@H](CO)NC(=O)[C@H](Cc2ccc(O)cc2)NC(=O)[C@H](Cc2c[nH]cn2)NC(=O)CNC1=O", "note": "[Example 56]", "values": [{"measurement": "EC50", "setting": "[3]", "result": 145000, "unit": "pM"}]}
